Measurements published in US7208505B2, “β3 adrenergic agonists” (Eli Lilly and Company, priority 2001, dated 2007).

These compounds were tested against T1, human β3 adrenergic receptor (Homo sapiens, UniProt P13945) (assay: whole cell receptor coupled c-AMP assay (Emax relative to isoproterenol)). Conditions: % intrinsic activity relative to isoproterenol; transfected CHO cells.
T1 construct: expressed in transfected cells
Assay type: cell-based
Summary of the method: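 Stably transfected CHO DXB-11 cells expressing human β3 receptor incubated 20 min at 37 °C with compound in HBSS/HEPES pH 7.4 containing 1 mM IBMX. cAMP measured by SPA; four-parameter logistic fit, Emax = maximal response as % of isoproterenol maximum.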

T1 sequence (P13945 whole entry): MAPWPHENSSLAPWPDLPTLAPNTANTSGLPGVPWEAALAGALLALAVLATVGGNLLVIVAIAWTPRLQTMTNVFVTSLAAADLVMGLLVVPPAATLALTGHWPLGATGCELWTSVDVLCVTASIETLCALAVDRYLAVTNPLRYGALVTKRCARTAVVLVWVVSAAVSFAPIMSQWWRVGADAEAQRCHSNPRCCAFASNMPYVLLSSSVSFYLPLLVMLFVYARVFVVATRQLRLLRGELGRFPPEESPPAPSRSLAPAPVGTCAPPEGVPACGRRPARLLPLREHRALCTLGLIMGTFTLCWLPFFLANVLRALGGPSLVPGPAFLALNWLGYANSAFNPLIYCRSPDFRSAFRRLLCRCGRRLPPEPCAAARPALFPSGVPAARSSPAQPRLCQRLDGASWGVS

Row | SMILES | Emax
1 | CC(Cc1c[nH]c2c(OCC#N)cccc12)NC[C@H](O)COc1ccccc1-c1ccno1 (stereo partly shown) [Example 199] | 22.8%

Same assay, conditions: % intrinsic activity: maximal response divided by isoproterenol maximal response times 100; transfected CHO cells; average of at least 3 runs

Row | SMILES | Emax (%) ± SEM
2 | CC(C)(Cc1c[nH]c2c(-c3ccc(C(N)=O)cc3)cccc12)NC[C@H](O)COc1ccccc1-c1ccon1 [Example 103] | 57.1 ± 2.4%
3 | CC(C)(Cc1c[nH]c2c(C=Cc3cnccn3)cccc12)NC[C@H](O)COc1ccccc1-c1cccs1 [Example 188] | 70.5 ± 3.8%
4 | CC(C)(Cc1c[nH]c2ccccc12)NC[C@H](O)COc1ccccc1-c1ccc(F)s1 [Example 126] | 76.1 ± 2.9%
5 | CC(=O)c1cccc(-c2cccc3c(CC(C)(C)NC[C@H](O)COc4ccccc4-c4cccs4)c[nH]c23)c1 [Example 46] | 68.2 ± 2.2%
6 | CC(C)(Cc1c[nH]c2c(OCC#N)cccc12)NC[C@H](O)COc1ccccc1-n1cccc1 [Example 1] | 64.1 ± 4.5%
7 | CC(C)(Cc1c[nH]c2ccc(F)cc12)NC[C@H](O)COc1ccccc1-c1cccs1 [Example 163] | 57.1 ± 5.8%
8 | CC(C)(Cc1c[nH]c2c(-c3ccsc3)cccc12)NC[C@H](O)COc1ccccc1-c1cccs1 [Example 106] | 78.0 ± 8.5%
9 | CC(C)(Cc1c[nH]c2c(CCS(C)(=O)=O)cccc12)NC[C@H](O)COc1ccccc1-c1cccs1 [Example 142] | 82.1 ± 1.4%
10 | CC(=O)c1ccc(-c2cccc3c(CC(C)(C)NC[C@H](O)COc4ccccc4-n4cccc4)c[nH]c23)cc1 [Example 50] | 38.4 ± 3.2%
11 | CC(C)(Cc1c[nH]c2ccccc12)NC[C@H](O)COc1ccccc1-n1cccc1 [Example 32] | 58.9 ± 1.9%
12 | COC(=O)c1ccc2c(ccn2C[C@@H](C)NC[C@H](O)COc2ccccc2-c2cccs2)c1 [Example 154] | 32.4 ± 8.1%
13 | COC(=O)c1ccc(-c2cccc3c(CC(C)(C)NC[C@H](O)COc4ccccc4-c4ccon4)c[nH]c23)cc1 [Example 44] | 38.5 ± 2.3%
14 | CC(C)(Cc1c[nH]c2c(OCC#N)cccc12)NC[C@H](O)COc1ccccc1-c1cccs1 [Example 101] | 76.5 ± 12.6%
15 | C[C@H](Cn1ccc2ccccc21)NC[C@H](O)COc1ccccc1-c1nccs1 [Example 66] | 34.8 ± 3.2%
16 | CC(C)(Cc1c[nH]c2c(OCC#N)cccc12)NC[C@H](O)COc1ccccc1-c1csc(C#N)c1.O=C(O)C(F)(F)F [Example 16] | 54.2 ± 2.2%
17 | CC(C)(Cc1c[nH]c2ccc(C(N)=O)cc12)NC[C@H](O)COc1ccccc1-c1cccs1 [Example 71] | 47.4 ± 1.8%
18 | CC(Cc1cn(C)c2c(F)cc(F)cc12)NCC(O)COc1ccccc1-c1cccs1 (stereo not shown) [Example 197] | 34.5 ± 4.2%
19 | COC(=O)CCc1cccc2c(CC(C)(C)NC[C@H](O)COc3ccccc3-c3cccs3)c[nH]c12 [Example 145] | 79.3 ± 7.1%
20 | CC(C)(Cc1c[nH]c2cc(C(=O)O)ccc12)NC[C@H](O)COc1ccccc1-c1ccsc1 [Example 62] | 63.8 ± 0.5%
21 | CC(C)(Cc1c[nH]c2c(OCC#N)cccc12)NC[C@H](O)COc1ccccc1-c1ccon1 [Example 133] | 60.6 ± 2.4%
22 | Cc1ccc(-c2ccccc2OC[C@@H](O)CNC(C)(C)Cc2c[nH]c3ccccc23)s1.O=C(O)C(F)(F)F [Example 13] | 63.4 ± 0.3%
23 | CC(C)(Cc1c[nH]c2ccccc12)NC[C@H](O)COc1cccnc1-c1cccs1 [Example 125] | 59.2 ± 2.2%
24 | CC(C)(Cc1c[nH]c2c(Oc3ccc(C#N)cn3)cccc12)NC[C@H](O)COc1ccccc1-c1cccs1 [Example 115] | 83.3 ± 4.0%
25 | CC(C)(Cc1c[nH]c2c(-c3cccs3)cccc12)NC[C@H](O)COc1ccccc1-c1cccs1 [Example 108] | 71.5 ± 7.9%
26 | CC(C)(NC[C@H](O)COc1ccccc1-c1ccon1)C(=O)N1CCc2ccccc21 [Example 193] | 32.0 ± 5.5%
27 | CC(C)(Cc1c[nH]c2c(OCC#N)cccc12)NC[C@H](O)COc1ccccc1-c1ccsc1.Cl [Example 52] | 74.0 ± 3.1%
28 | CC(C)(Cc1c[nH]c2ccccc12)NC[C@H](O)COc1ccccc1-c1cscn1 [Example 79] | 58.2 ± 2.3%
29 | CC(C)(Cc1c[nH]c2ccccc12)NC[C@H](O)COc1ccccc1-c1cccs1 [Example 157] | 51.3 ± 7.8%

Same assay, conditions: CHO, % intrinsic activity relative to isoproterenol; transfected CHO cells

Row | SMILES | Emax
30 | C[C@@H](CN1CCc2cc(F)c(Cl)cc21)NC[C@H](O)COc1ccccc1-c1cccs1 [Example 195] | 8.9%
31 | CC(C)(Cc1c[nH]c2c(OCC(=O)O)cccc12)NC[C@H](O)COc1ccccc1-n1cccc1 [Example 203] | 73.8%

Same assay, conditions: CHO, % intrinsic activity: maximal response divided by isoproterenol maximal response times 100; transfected CHO cells; average of at least 3 runs

Row | SMILES | Emax
32 | CC(C)(Cc1c[nH]c2c(-c3ccc(C(=O)O)s3)cccc12)NC[C@H](O)COc1ccccc1-c1cccs1 [Example 250] | 92.5 ± 5.1%
33 | CC(C)(Cc1c[nH]c2ccc(C(=O)O)cc12)NC[C@H](O)COc1ccccc1-c1cccs1 [Example 239] | 69.6 ± 3.5%
34 | CC(C)(Cc1c[nH]c2c(CCn3cncn3)cccc12)NC[C@H](O)COc1ccccc1-c1cccs1 [Example 222] | 81.2 ± 0.9%
